Data taken from US6465259B1, “Non radioactive receptor assay suitable for quantitative and qualitative analysis of trace amounts of receptor binding analyte” (Merska B.V., priority 1999, dated 2002).
Where two headings read alike, the source gives them in different places.

Columns and labels:
[1] = tested on: benzodiazepine receptor; conditions: rat receptor material, cited from earlier work
[2] = target: T1, benzodiazepine receptor; assay: Fluorescent receptor assay for benzodiazepines, calibration curves with FLB as labeled ligand; format: binding, calf; conditions: 7.3 nM
T1 construct: IC50; other: FLB as labeled ligand, 7.3 nM; Bmax; other: saturation with FLB; other: [3H]flunitrazepam as labeled ligand, 2.2 nM; other: FLB assay concentration 7.3 nM; recov

[3] = target: T1, benzodiazepine receptor; assay: Radioligand binding assay with [3H]flunitrazepam; parameters: species or system calf
Procedure: Calf brains, obtained from the slaughtcrhouse and stored at −80° C. after discarding the cerebellum, were homogenized in 6 volunmes (w/v) of ice-cold 0.32 M sucrose in a Potter-Elvehjem homogenizer (RW 20 DZW. Janke & Kunkel K G, Staufen i. Breisgau, Germany) fitted with a teflon pestle and centrifuged for 10 min at 1,000 ×g in a Beckman L8-55 Ulcracentrifuge (Beckman Instruments, Mijdrecht, The Netherlands). The supernatant was centrifuged for 60 min at 100,000×g. The resulting pellet (P2) was resuspended in sodium phosphate buffer (pH 7.4; 50 mM) and centrifuged for 30 min at 100,000×g. This washing step was repeated four times. All operations were performed at 4° C. […]
The filters of a MultiScreen-FB filtration plate were pre-wetted by pipetting 200 μl ice-cold Tris-HCl buffer (pH 7.4; 50 mm) into each well. […] After shaking the vials, the radioactivity was counted for 5 min in a Tri-Carb 4000 Packard scintillation counter (Canberra Packard, Groningen, The Netherlands). […]
The saturation and inhibition curves for both the radioactive labeled benzodiazepine [^3H]flunitrazepam and the fluorescent labeled benzodiazepine. […] The specific binding was calculated by subtracting the non-specific binding from the total binding. […] The Bmax value was calculated to be 3.42±0.01 nM, which corresponds to 3.84±0.09 pM/mg protein. […]

[4] = target: benzodiazepine receptor; conditions: cited from earlier work
[5] = tested on: benzodiazepine receptor; assay: Fluorescent binding assay, saturation experiments with FLB; parameters: species or system calf; conditions: free initial concentration of 15 nM
Procedure: (§1) Calf brains, obtained from the slaughtcrhouse and stored at −80° C. after discarding the cerebellum, were homogenized in 6 volunmes (w/v) of ice-cold 0.32 M sucrose in a Potter-Elvehjem homogenizer (RW 20 DZW. Janke & Kunkel K G, Staufen i. Breisgau, Germany) fitted with a teflon pestle and centrifuged for 10 min at 1,000 ×g in a Beckman L8-55 Ulcracentrifuge (Beckman Instruments, Mijdrecht, The Netherlands). The supernatant was centrifuged for 60 min at 100,000×g. The resulting pellet (P2) was resuspended in sodium phosphate buffer (pH 7.4; 50 mM) and centrifuged for 30 min at 100,000×g. This washing step was repeated four times. All operations were performed at 4° C. The washed P2-pellet was resuspended in 5 volumes (w/v) phosphate buffer, frozen with liquid nitrogen and lyophilized (Hetosicc CD 52-1, Heto, Birkerød, Denmark) . rhe lyophilized P2-pellet was stored at −20° C. For the receptor binding assays, the lyophilized P2-pellet was resuspended in Tris-HCl buffer (pH 7.4; 50 mM) with the glass-teflon Potter homogenizer (3.5 mg/inl).
(§2) For the saturation experiments, 25 μl FLB solution (0.5-50 nM final concentration) in Tris-HCl buffer (pH 7.4; 50 mM) were pipetted in duplicate in the wells of the filtration plate after pre-wetting the filters. […] To this mixture, 200 μl of the receptor suspension (225 μg protein per assay) were added and the plate was shaken for 1 min. […] Hundred μl of the filtrates were analyzed with the above described HPLC-method.
(§3) The saturation and inhibition curves for both the radioactive labeled benzodiazepine [^3H]flunitrazepam and the fluorescent labeled benzodiazepine. […] The specific binding was calculated by subtracting the non-specific binding from the total binding. […] The Bmax value was calculated to be 3.42±0.01 nM, which corresponds to 3.84±0.09 pM/mg protein. […] After binding of BD 623 to the receptor, the fluorescence intensity is decreased and from the level of fluorescence quenching the amount of bound BD 623 can be estimated. […]

[6] = tested on: T1, benzodiazepine receptor; assay: as above; parameters: species or system calf
Procedure: as §1, §2, §3

[7] = target: benzodiazepine receptor; assay: Affinity for the benzodiazepine receptor, method not described; format: binding; conditions: FIG. 1 legend
[8] = target: benzodiazepine receptor; conditions: McCabe et al. [h]; cited from earlier work

Q: Which Bmax ([1]; filtration) does the source give for `CCOC(=O)c1ncn2c1CN(C)C(=O)c1cc(F)ccc1-2` [[^3H]flumazenil] here?
A: 2.3 nM

Q: With `CN1C(=O)CN=C(c2ccccc2)c2cc(Cl)ccc21` [diazepam] as the compound, how does the IC50 [2] read?
A: 41 ± 7 nM

Q: For `O=C1Nc2ccc(Cl)cc2C(c2ccccc2Cl)=NC1O` (stereo not shown) [lorazepam], which IC50 [2] is on record?
A: 7.2 ± 0.5 nM

Q: And the IC50 ([3]; [3H]flunitrazepam as labeled ligand, 2.2 nM)?
A: 6.61 ± 0.69 nM

Q: What does the source list for “AMCA-didesethylflurazepam [AMCA-Ro7-1986]”?
A: Ki ([4]; from reference [b]): 8.6 nM; non-specific binding ([4]; reference [b]): 20%

Q: With Mmc-O—CO—(CH2)3-Ro15-3890 [FLB] as the compound, how does the “non-specific binding, % of the total binding” value [5] read?
A: 25%

Q: What about the “added FLB bound to the receptors (total binding)” value ([6]; FLB assay concentration 7.3 nM) of the same compound?
A: 26%

Q: And the Kd ([6]; saturation curve, one-binding site model, read-out: binding affinity (Kd) for the benzodiazepine receptor)?
A: ~7.3 nM

Q: And the Ki ([3]; read-out: Ki-value, inhibition assays with [3H]flunitrazepam)?
A: 6.5 nM

Q: For NBD-NH—(CH2)3-Ro15-3890 [BD 623], which Ki [7] is on record?
A: 5.7 nM

Q: What about the Bmax ([1]; fluorescence quenching, no bound/unbound separation) of the same compound?
A: 7.2 nM

Q: With “fluorescein-NH—(CH2)3-Ro15-3890 [BD 621]” as the compound, how does the Kd [8] read?
A: 63 nM
